Read-outs that look alike come from different tables or passages of the source.
Tests used:
[1] = target: human nociceptin/orphanin FQ peptide (hNOP) receptor (Homo sapiens (Human), UniProt P41146); experiment: hNOP receptor binding assay (SPA); details: Ki; displacement of [leucyl-3H]nociceptin, hNOP receptor membranes; read-out: hNOP Ki [nM] or % inhibition at 1 μM
Protocol: Human Nociceptin/Orphanin FQ Peptide (hNOP) Receptor Binding Assay
The hNOP receptor binding assay was performed as homogeneous SPA-assay (scintillation proximity assay) using the assay buffer 50 mM TRIS-HCl, 10 mM MgCl2, 1 mM EDTA (pH 7.4). The final assay volume (250 μl/well) included 0.5 nM of [leucyl-^3H]nociceptin as ligand (PerkinElmer Life Sciences. Inc. Boston, Mass. USA) and either test compound in dilution series or 1 μM unlabelled nociceptin for determination of unspecific binding. The test compound was diluted with 25% DMSO in H2O to yield a final 0.5% DMSO concentration which also served as a respective vehicle control. The assay was started by adding wheat germ agglutinin coated SPA beads (GE Healthcare UK Ltd. Buckinghamshire. UK) which had been preloaded with hNOP receptor membranes (PerkinElmer Life Sciences. Inc. Boston, Mass. USA). After incubation for 60 minutes at RT and centrifugation for 20 minutes at 500 rpm the signal rate was measured by means of a 1450 Microbeta Trilux ß-counter (PerkinElmer Life Sciences/Wallac. Turku. Finland). Half-maximal inhibitory concentration (IC50) values reflecting 50% displacement of [^3H]nociceptin-specific receptor binding were calculated by nonlinear regression analysis and Ki values were calculated by using the Cheng-Prusoff equation. (Cheng and Prusoff. 1973).

[2] = target: human mu-opioid peptide (hMOP) receptor (Homo sapiens (Human), UniProt P35372); experiment: hMOP receptor binding assay (SPA)
Sequence of human mu-opioid peptide (hMOP) receptor (P35372 whole entry): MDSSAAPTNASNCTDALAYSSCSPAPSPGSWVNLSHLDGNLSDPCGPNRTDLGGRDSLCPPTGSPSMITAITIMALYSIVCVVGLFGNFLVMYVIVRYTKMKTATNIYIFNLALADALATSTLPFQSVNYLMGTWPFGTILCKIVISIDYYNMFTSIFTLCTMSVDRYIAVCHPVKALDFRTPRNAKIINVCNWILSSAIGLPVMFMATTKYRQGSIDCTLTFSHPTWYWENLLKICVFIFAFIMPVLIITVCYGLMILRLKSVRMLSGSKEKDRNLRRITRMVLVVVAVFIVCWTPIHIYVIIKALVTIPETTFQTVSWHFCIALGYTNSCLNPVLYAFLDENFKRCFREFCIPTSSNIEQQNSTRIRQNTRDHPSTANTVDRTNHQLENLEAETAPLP
Protocol: Human Mu-Opioidpeptide (hMOP) Receptor Binding Assay
The hMOP receptor binding assay was performed as homogeneous SPA-assay (scintillation proximity assay) using the assay buffer 50 mM TRIS-HCl (pH 7.4) supplemented with 0.052 mg/ml bovine serum albumin (Sigma-Aldrich Co. St. Louis, Mo.). […] The assay was started by adding wheat germ agglutinin coated SPA beads (GE Healthcare UK Ltd. Buckinghamshire. UK) which had been preloaded with hMOP receptor membranes (PerkinElmer Life Sciences. Inc. Boston, Mass. USA).

[3] = Ki, displacement of [3H]naloxone, hMOP receptor membranes, read-out: hMOP Ki [nM] or % inhibition at 1 μM

Compound | Ki [1] | Ki [2] | Ki [2, 3]
CN(C)[C@]1(c2cccc(F)c2)C[C@@]2(CN(CCC#N)C(=O)N2CC2CC2)C1 [SC-44, cis-3-(5-(cyclopropylmethyl)-2-(dimethylamino)-2-(3-fluorophenyl)-6-oxo-5,7-diazaspiro[3.4]octan-7-yl)propanenitrile] | 15 nM | 110 nM | –
CN(C)[C@]1(c2ccccc2)C[C@@]2(CN(CCC#N)C(=O)N2CC2CC2)C1 [SC-45, Cis-3-[5-(cyclopropylmethyl)-2-(dimethylamino)-6-oxo-2-phenyl-5,7-diazaspiro[3.4]octan-7-yl]propanenitrile] | 25 nM | – | 37 nM
CN(C)[C@]1(c2ccccc2)C[C@@]2(CN(CC3(O)CCC3)C(=O)N2CC2CC2)C1 [SC-46, Cis-5-(cyclopropylmethyl)-2-(dimethylamino)-7-[(1-hydroxycyclobutyl)methyl]-2-phenyl-5,7-diazaspiro[3.4]octan-6-one] | 29 nM | – | 48 nM
CN(C)[C@]1(c2cccc(F)c2)C[C@@]2(CN(CCC3COC3)C(=O)N2CC2CC2)C1 [SC-47, Cis-5-(cyclopropylmethyl)-2-(dimethylamino)-2-(3-fluorophenyl)-7-[2-(oxetan-3-yl)ethyl]-5,7-diazaspiro[3.4]octan-6-one] | 9 nM | – | 44 nM

Source: patent US10738015B2, “1,3-diaza-spiro-[3.4]-octane derivatives” (priority 2017, dated 2020)
